Like-named read-outs stand apart in the source and are kept apart here.
Target: Human Factor D (Homo sapiens (Human), UniProt P00746)
Assay: Human Factor D Assay
Assay type: biochemical
Settings: read-out: IC5 (Stars)
Procedure: Human Factor D (purified from human serum, Complement Technology, Inc.) at 80 nM final concentration is incubated with test compound at various concentrations for 5 min at room temperature in 50 mM Tris, 1M NaCl, pH 7.5. A synthetic substrate Z-L-Lys-SBzl and DTNB (Ellman's reagent) are added to final concentrations of 100 μM each. Absorbance at 405 nm (A405) is recorded at 30 second intervals for 30 min using a microplate spectrophotometer. IC50 values are calculated by nonlinear regression of Complement Factor D reaction rates as a function of test compound concentration.

[1] = Table 6, Human Factor D 80 nM, substrate Z-L-Lys-SBzl

Chain of Human Factor D (P00746 26-253): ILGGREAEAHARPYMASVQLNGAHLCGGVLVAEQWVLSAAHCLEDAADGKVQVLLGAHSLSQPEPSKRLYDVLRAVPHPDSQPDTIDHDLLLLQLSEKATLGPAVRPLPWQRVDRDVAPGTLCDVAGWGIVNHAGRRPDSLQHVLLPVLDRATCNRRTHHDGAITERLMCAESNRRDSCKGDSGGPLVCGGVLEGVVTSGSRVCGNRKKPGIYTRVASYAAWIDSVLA

SMILES | IC50 [1] | IC50 (Table 7)
CC(=O)c1nn(CC(=O)N2[C@H](C(=O)Nc3nc(Br)ccc3C)C[C@@]3(C)C[C@@H]23)c2ccc(O[C@@H]3CO[C@H]4[C@@H]3OC[C@H]4O)cc12 [Compound T-52, (1R,3S,5R)-2-(2-(3-acetyl-5-(((3R,3aR,6R,6aR)-6-hydroxy-hexahydrofuro[3,2-b]furan-3-yl)oxy)-1H-indazol-1-yl)acetyl)-N-(6-bromo-3-methylpyridin-2-yl)-5-methyl-2-azabicyclo[3.1.0]hexane-3-carboxamide] | < 1000 nM | –
CC(=O)O[C@@H]1CO[C@H]2[C@@H]1OC[C@H]2Oc1ccc2c(c1)c(C(C)=O)nn2CC(=O)N1C[C@H](F)C[C@H]1C(=O)Nc1nc(Br)ccc1C [Compound T-53, (3R,3aR,6R,6aR)-6-((3-acetyl-1-(2-((2S,4R)-2-((6-bromo-3-methylpyridin-2-yl)carbamoyl)-4-fluoropyrrolidin-1-yl)-2-oxoethyl)-1H-indazol-5-yl)oxy)hexahydrofuro[3,2-b]furan-3-yl acetate] | < 1000 nM | –
CC(=O)c1nn(CC(=O)N2C[C@H](F)C[C@H]2C(=O)Nc2cccc(Br)n2)c2ccc(OCCS(=O)(=O)CC3(C)COC3)cc12 [Compound T-54, (2S,4R)-1-(2-(3-acetyl-5-(2-(((3-methyloxetan-3-yl)methyl)sulfonyl)ethoxy)-1H-indazol-1-yl)acetyl)-N-(6-bromopyridin-2-yl)-4-fluoro-pyrrolidine-2-carboxamide] | < 1000 nM | –
CC(=O)c1nn(CC(=O)N2C[C@H](F)C[C@H]2C(=O)Nc2nc(Br)ccc2C)c2ccc(OCCS(=O)(=O)CC3(C)COC3)cc12 [Compound T-55, (2S,4R)-1-(2-(3-acetyl-5-(2-(((3-methyloxetan-3-yl)methyl)sulfonyl)ethoxy)-1H-indazol-1-yl)acetyl)-N-(6-bromo-3-methylpyridin-2-yl)-4-fluoro-pyrrolidine-2-carboxamide] | < 1000 nM | –
CC(=O)c1nn(CC(=O)N2C(C(=O)Nc3nc(Br)ccc3C)C[C@]3(C)C[C@H]23)c2ccc(OCCS(=O)(=O)CC3(C)COC3)cc12 (stereo partly drawn) [Compound T-56, (1S,5S)-2-(2-(3-acetyl-5-(2-(((3-methyloxetan-3-yl)methyl)sulfonyl)ethoxy)-1H-indazol-1-yl)acetyl)-N-(6-bromo-3-methylpyridin-2-yl)-5-methyl-2-azabicyclo[3.1.0]hexane-3-carboxamide] | 1000 to 10000 nM | –
CC(=O)c1nn(CC(=O)N2C[C@H](F)C[C@H]2C(=O)Nc2cccc(Br)n2)c2ccc(O[C@@H]3CO[C@H]4[C@@H]3OC[C@H]4OC(=O)[C@@H](N)C(C)C)cc12 [Compound T-57, (3R,3aR,6R,6aR)-6-((3-acetyl-1-(2-((2S,4R)-2-((6-bromopyridin-2-yl)carbamoyl)-4-fluoropyrrolidin-1-yl)-2-oxoethyl)-1H-indazol-5-yl)oxy)hexahydrofuro[3,2-b]furan-3-yl L-valinate] | < 1000 nM | –
CC(=O)c1nn(CC(=O)N2C[C@H](F)C[C@H]2C(=O)Nc2nc(Br)ccc2C)c2ccc(O[C@@H]3CO[C@H]4[C@@H]3OC[C@H]4OC(=O)[C@@H](N)C(C)C)cc12 [Compound T-58, (3R,3aR,6R,6aR)-6-((3-acetyl-1-(2-((2S,4R)-2-((6-bromo-3-methylpyridin-2-yl)carbamoyl)-4-fluoropyrrolidin-1-yl)-2-oxoethyl)-lH-indazol-5-yl)oxy)hexahydrofuro[3,2-b]furan-3-yl L-valinate] | < 1000 nM | –
CC(=O)c1nn(CC(=O)N2[C@H](C(=O)Nc3nc(Br)ccc3C)C[C@@]3(C)C[C@@H]23)c2ccc(OCCS(=O)(=O)CC3(C)COC3)cc12 [Compound T-59, (1R,5R)-2-(2-(3-acetyl-5-(2-(((3-methyloxetan-3-yl)methyl)sulfonyl)ethoxy)-1H-indazol-1-yl)acetyl)-N-(6-bromo-3-methylpyridin-2-yl)-5-methyl-2-azabicyclo[3.1.0]hexane-3-carboxamide] | < 1000 nM | –
CS(=N)(=O)COc1ccc2c(C(N)=O)nn(CC(=O)N3C[C@H](F)C[C@H]3C(=O)Nc3cccc(-c4ccccc4Cl)c3F)c2c1 (stereo partly drawn) [Compound T-60, 1-(2-((2S,4R)-2-((2′-chloro-2-fluoro-[1,1′-biphenyl]-3-yl)carbamoyl)-4-fluoropyrrolidin-1-yl)-2-oxoethyl)-6-((S-methylsulfonimidoyl)methoxy)-1H-indazole-3-carboxamide] | < 1000 nM | –
C/S(COc1ccc2c(C(N)=O)nn(CC(=O)N3C[C@H](F)C[C@H]3C(=O)Nc3cccc(-c4ccccc4Cl)c3F)c2c1)=N\C#N (stereo partly drawn) [Compound T-61] | < 1000 nM | –
CS(=O)(COc1ccc2c(C(N)=O)nn(CC(=O)N3C[C@H](F)C[C@H]3C(=O)Nc3cccc(-c4ccccc4Cl)c3F)c2c1)=NC#N (stereo partly drawn) [Compound T-62] | < 1000 nM | –
CC(=O)O[C@@H]1CO[C@H]2[C@@H]1OC[C@H]2Oc1ccc2c(c1)c(C(C)=O)nn2CC(=O)N1C[C@H](F)C[C@H]1C(=O)Nc1cccc(Br)n1 [Compound T-63, (3R,3aR,6R,6aR)-6-((3-acetyl-1-(2-((2S,4R)-2-((6-bromopyridin-2-yl)carbamoyl)-4-fluoropyrrolidin-1-yl)-2-oxoethyl)-1H-indazol-5-yl)oxy)hexa-hydrofuro[3,2-b]furan-3-yl acetate] | < 1000 nM | –
Cc1ccc(Br)nc1NC(=O)[C@@H]1C[C@@]2(C)C[C@H]2N1C(=O)Cn1nc(C(N)=O)c2cc(NC(=O)C3CCCC3(F)F)ccc21 (stereo partly drawn) [Compound T-65, 1-(2-((1R,3S,5R)-3-((6-bromo-3-methylpyridin-2-yl)carbamoyl)-5-methyl-2-azabicyclo[3.1.0]hexan-2-yl)-2-oxoethyl)-5-(2,2-difluorocyclopentane-1-carboxamido)-1H-indazole-3-carboxamide] | – | < 1000 nM
CC(=O)c1nn(CC(=O)N2[C@H](C(=O)Nc3nc(Br)ccc3C)C[C@@]3(C)C[C@@H]23)c2c(C)cc(NC(=O)C3CCCC3(F)F)cc12 (stereo partly drawn) [Compound T-66, (1R,3S,5R)-2-(2-(3-acetyl-5-(2,2-difluorocyclopentane-1-carboxamido)-7-methyl-1H-indazol-1-yl)acetyl)-N-(6-bromo-3-methylpyridin-2-yl)-5-methyl-2-azabicyclo[3.1.0]hexane-3-carboxamide] | – | < 1000 nM
CC(=O)c1nn(CC(=O)N2[C@H](C(=O)NCc3cccc(Cl)c3F)C[C@@]3(C)C[C@@H]23)c2c(C)cc(NC(=O)N3CCCC(F)(F)C3)cc12 [Compound T-67, (1R,3S,5R)-2-(2-(3-acetyl-5-(3,3-difluoropiperidine-1-carboxamido)-7-methyl-1H-indazol-1-yl)acetyl)-N-(3-chloro-2-fluorobenzyl)-5-methyl-2-azabicyclo[3.l.0]hexane-3-carboxamide] | – | < 1000 nM
CC(=O)c1nn(CC(=O)N2[C@H](C(=O)NCc3cccc(Cl)c3F)C[C@@]3(CNC(=O)COCCOCCNC(=O)COCCOCCNC(=O)CC[C@H](NC(=O)CCCCCCCCCCCCCCCCC(=O)O)C(=O)O)C[C@@H]23)c2c(C)cc(NC(=O)N3CCCC(F)(F)C3)cc12 [Compound T-68, (S)-1-((1R,3S,5R)-2-(2-(3-acetyl-5-(3,3-difluoropiperidine-1-carboxamido)-7-methyl-1H-indazol-1-yl)acetyl)-3-((3-chloro-2-fluorobenzyl)carbamoyl)-2-azabicyclo[3.1.0]hexan-5-yl)-24-carboxy-3,12,21,26-tetraoxo-5,8,14,17-tetraoxa-2,11,20,25-tetraazatritetracontan-43-oic acid] | – | < 1000 nM
Cc1ccc(Br)nc1NC(=O)[C@@H]1C[C@@]2(CNC(=O)COCCOCCNC(=O)COCCOCCNC(=O)CC[C@H](NC(=O)CCCCCCCCCCCCCCCCC(=O)O)C(=O)O)C[C@H]2N1C(=O)Cn1nc(C(N)=O)c2cc(Nc3cccnc3)ccc21 [Compound T-71, (S)-1-((1R,3S,5R)-3-((6-bromo-3-methylpyridin-2-yl)carbamoyl)-2-(2-(3-carbamoyl-5-(pyridin-3-ylamino)-1H-indazol-1-yl)acetyl)-2-azabicyclo[3.1.0]hexan-5-yl)-24-carboxy-3,12,21,26-tetraoxo-5,8,14,17-tetraoxa-2,11,20,25-tetraazatritetracontan-43-oic acid] | – | < 1000 nM
CCOP(=O)(CC)COc1ccc2c(C(C)=O)nn(CC(=O)N3C[C@H](F)C[C@H]3C(=O)Nc3nc(Br)ccc3C)c2c1 (stereo partly drawn) [Compound T-77, ethyl (((3-acetyl-1-(2-((2S,4R)-2-((6-bromo-3-methylpyridin-2-yl)carbamoyl)-4-fluoropyrrolidin-1-yl)-2-oxoethyl)-1H-indazol-6-yl)oxy)methyl)(ethyl)phosphinate] | – | < 1000 nM
CCOP(=O)(COc1ccc2c(C(C)=O)nn(CC(=O)N3C[C@H](F)C[C@H]3C(=O)Nc3nc(Br)ccc3C)c2c1)OCC [Compound T-78, diethyl (((3-acetyl-1-(2-((2S,4R)-2-((6-bromo-3-methylpyridin-2-yl)carbamoyl)-4-fluoropyrrolidin-1-yl)-2-oxoethyl)-1H-indazol-6-yl)oxy)methyl)phosphonate] | – | < 1000 nM
CCP(=O)(O)COc1ccc2c(C(C)=O)nn(CC(=O)N3C[C@H](F)C[C@H]3C(=O)Nc3nc(Br)ccc3C)c2c1 [Compound T-79, (((3-acetyl-1-(2-((2S,4R)-2-((6-bromo-3-methylpyridin-2-yl)carbamoyl)-4-fluoropyrrolidin-1-yl)-2-oxoethyl)-1H-indazol-6-yl)oxy)methyl)(ethyl)phosphinic acid] | – | < 1000 nM
CC(=O)c1nn(CC(=O)N2[C@H](C(=O)Nc3nc(Br)ccc3C)C[C@@]3(Cn4cc(C5CC5)nn4)C[C@@H]23)c2cnccc12 [Compound T-83, (1R,3S,5R)-2-(2-(3-acetyl-1H-pyrazolo[3,4-c]pyridin-1-yl)acetyl)-N-(6-bromo-3-methylpyridin-2-yl)-5-((4-cyclopropyl-1H-1,2,3-triazol-1-yl)methyl)-2-azabicyclo[3.1.0]hexane-3-carboxamide] | – | < 1000 nM
